Reference: patent US20110033904A1, “METHOD FOR PREPARING ORTHODIHYDROXYISOFLAVONES USING A BIOTRANSFORMATION SYSTEM” (priority 2008, published 2011)

Tested on: C57BL/6 mouse melanocyte cells (MeI-Ab cells)
Assay: Melanin production inhibitory effects using MeI-Ab cells (Dooley's method)
Type: cell-based
Details: substances added during 3 days from day 2 of culture, absorbance at 400 nm, hydroquinone 100 ppm
Protocol: The melanin production inhibitory effects of the ODIs obtained in Examples 1 and 2 were measured using MeI-Ab cells.
First, C57BL/6 mouse melanocyte cells (MeI-Ab cells) (Dooley, T. P. et al, Skin pharmacol, 7, pp 188-200) were cultured in a DMEM (Dulbeccos modified Eagles media) medium containing 10% fetal bovine serum, 100 nM 2-O-tetradecanoylphorbol-13-acetate and 1 nM cholera toxin in conditions of 37° C. and 5% CO2. The cultured MeI-Ab cells were detached by 0.25% trypsin-EDTA and cultured in a 24-well plate at a concentration of 10^5 cells/well. During the culture period, 100 ppm hydroquinone and each of the ODIs obtained in Examples 1 and 2 were added to the cells continuously during 3 days from 2 days after the start of the culture. Herein, the hydroquinone was used as a positive control group. The culture broth was collected and washed, and the cells were lysed with 1N sodium hydroxide and measured for absorbance at 400 nm.
Melanin production inhibition (%)=100−(absorbance of each test substance/absorbance of control group×100) [Math Figure 1]

Structure (SMILES) | Melanin production inhibition (%) | inhibition at 100 ppm (Mus musculus, Melanocyte) [%]
O=c1c(-c2ccc(O)c(O)c2)coc2cc(O)ccc12 [7,3′,4′-trihydroxyisoflavone] | 38.7 | –
O=c1c(-c2ccc(O)c(O)c2)coc2cc(O)cc(O)c12 [7,5,3′,4′-tetrahydroxyisoflavone] | 40.8 | –
O=c1c(-c2ccc(O)cc2)coc2cc(O)c(O)cc12 [7,6,4′-trihydroxyisoflavone] | 38.8 | –
O=c1c(-c2ccc(O)cc2)coc2c(O)c(O)ccc12 [7,8,4′-trihydroxyisoflavone] | 39.8 | –
Oc1ccc(O)cc1 [Hydroquinone, hydroquinone, reference compound] | – | 41.1
